Results: PMC9788692 (2022)

Legend:
Assay in all cases: in-line probing
[1] = tested on: 95 Csp (RNA, riboswitch) GGAAUGCUUCCUCCGCCACCGGGCGGAGGGUGAAAAGCGUCCACGGUCUCCCGUAGGUACGGCGCGCUCUGCGCGUUACAAGGGAGCCGCGGGCG; conditions: 100 mM KCl, 20 mM MgCl2, 50 mM Tris-HCl pH 8.3 (23 °C), ~48 h
[2] = tested on: 95 Csp M2 (RNA, riboswitch) GGAAUGCUUCCUCCGCCACCGGGCGGAGGGUGAAAAGCGUCCACGGUCUCCCGUAGGAACGGCGCGCUCUGCGCGUUACAAGGGAGCCGCGGGCG; conditions: 100 mM KCl, 20 mM MgCl2; 50 mM Tris-HCl pH 8.3 (23 °C), ~48 h; highest concentration 10 mM; modulation almost eliminated
[3] = tested on: 81 Csp (RNA, riboswitch) GGAAUGCUUCCUCCGCCACCGGGCGGAGGGUGAAAAGCGUCCACGGUCUCCCGUAGGUACGGCGCGCUCUGCGCGUUACAA; conditions: 100 mM KCl, 20 mM MgCl2; 50 mM Tris-HCl pH 8.3 (23 °C), ~48 h; weaker than 95 Csp
[4] = tested on: 95 Dsu (RNA, riboswitch) GGAAACUCUUCCCUGUCACCGGAUAGGGAGCCAAGAGGGUUUAUUCCUGCUGCAGGUAAUAUGGCGAAAACCAUUGAAAGGCAGGAAUAAAUCCU; conditions: 100 mM KCl, 20 mM MgCl2; 50 mM Tris-HCl pH 8.3 (23 °C), ~48 h; highest concentration 10 mM
[5] = tested on: 105 Mja (RNA, riboswitch) GGAACACCGCUUCUGUCACCGGACAGGAGAAAUGGGGUGUCUGGGAGUUGUCGUAGGUACGGUAUGGUUGCAUGCUAUAAGACAAUUCCUGGGCACCCCUGUUUU; conditions: 100 mM KCl, 20 mM MgCl2; 50 mM Tris-HCl pH 8.3 (23 °C), ~48 h; highest concentration 10 mM
[6] = weaker than guanidine, data not shown
[7] = highest concentration not stated

Row | binding [1, 6] | binding [1, 7] | Structure (SMILES) | further results
1 | weak |  | CNC(=N)N | 
2 | weak |  | N=C(N)NO | 

The remaining lines, values behind:

Row | Structure (SMILES) | binding [1, 6] | binding [1, 7] | further results
3 | N=C(N)N |  |  | binding ([1]; 0.61 µM-20 mM, no saturation, modulation above 1 mM): weak; binding [2]: weak; binding [3]: weak; binding [4]: no; binding [5]: no
4 | N=C(N)NCCCCN |  | no | 
5 | N=C(N)NCCC[C@H](N)C(=O)O |  | no | 
6 | N=C(N)NOCC[C@H](N)C(=O)O |  | no | 
